Assay results published in ChEMBL document CHEMBL3875178, “Discovery of oral-available resveratrol-caffeic acid based hybrids inhibiting acetylated and phosphorylated STAT3 protein” (Eur J Med Chem, 2016).
Active and inactive are the calls of the source. No cut-off for these calls is given here.

Columns and labels:
[1] = Growth inhibition of human HT-29 cells after 48 hrs by MTT assay; type: functional, cell-based; settings: HT-29, 48 h
[2] = Growth inhibition of human MDA-MB-231 cells after 48 hrs by MTT assay; type: functional, cell-based; settings: MDA-MB-231, 48 h
MDA-MB-231 [3] = assay: Potency index, ratio of resveratrol IC50 to compound IC50 for human MDA-MB-231 cells; type: functional
[4] = target: Signal transducer and activator of transcription 3 (Homo sapiens) (UniProt P40763); assay: Inhibition of STAT3 acetylation at Lys-685 residue in human MDA-MB-231 cells after 48 hrs by Western blot method; type: cell-based
[5] = Effect on total STAT3 protein level in human MDA-MB-231 cells at 1 to 5 uM after 48 hrs by Western blot method; type: ADME, cell-based; settings: mda-mb-231, 48 h
[6] = target: Signal transducer and activator of transcription 3 (Homo sapiens) (UniProt P40763); assay: Inhibition of STAT3 acetylation at Lys-685 residue in human MDA-MB-231 cells assessed as increase in PTPN6 mRNA at 1- 10 uM expression after 48 hrs by RT-PCR method; type: cell-based
[7] = target: Signal transducer and activator of transcription 3 (Homo sapiens) (UniProt P40763); assay: Inhibition of STAT3 acetylation at Lys-685 residue in human MDA-MB-231 cells assessed as increase in CDKN2A mRNA at 1- 10 uM expression after 48 hrs by RT-PCR method; type: cell-based
[8] = target: Signal transducer and activator of transcription 3 (Homo sapiens) (UniProt P40763); assay: Inhibition of STAT3 acetylation at Lys-685 residue in human MDA-MB-231 cells assessed as increase in DLEC1 mRNA at 1- 10 uM expression after 48 hrs by RT-PCR method; type: cell-based
[9] = target: Signal transducer and activator of transcription 3 (Homo sapiens) (UniProt P40763); assay: Inhibition of STAT3 phosphorylation at Tyr-705 residue in human MDA-MB-231 cells after 48 hrs by Western blot method; type: cell-based
[10] = target: Signal transducer and activator of transcription 3 (Homo sapiens) (UniProt P40763); assay: Inhibition of STAT3 phosphorylation at Tyr-705 residue in human MDA-MB-231 cells assessed as decrease in Bcl2 protein expression at 1 to 5 uM after 48 hrs by Western blot method; type: cell-based
[11] = target: Signal transducer and activator of transcription 3 (Homo sapiens) (UniProt P40763); assay: Inhibition of STAT3 phosphorylation at Tyr-705 residue in human MDA-MB-231 cells assessed as decrease in Cyclin D1 protein expression at 1 to 5 uM after 48 hrs by Western blot method; type: cell-based
[12] = target: Signal transducer and activator of transcription 3 (Homo sapiens) (UniProt P40763); assay: Inhibition of STAT3 phosphorylation at Tyr-705 residue in human MDA-MB-231 cells assessed as decrease in Bcl2 mRNA expression at 1 to 5 uM after 48 hrs by RT-PCR method; type: cell-based
[13] = target: Signal transducer and activator of transcription 3 (Homo sapiens) (UniProt P40763); assay: Inhibition of STAT3 phosphorylation at Tyr-705 residue in human MDA-MB-231 cells assessed as decrease in Cyclin D1 mRNA expression at 1 to 5 uM after 48 hrs by RT-PCR method; type: cell-based
MDA-MB-231 [14] = assay: Induction of apoptosis in human MDA-MB-231 cells assessed as live cells at 1 uM after 48 hrs by Annexin-V FITC/propidium iodide staining based flow cytometry (reference value: 96.1%); type: functional
MDA-MB-231 [15] = assay: Induction of apoptosis in human MDA-MB-231 cells assessed as early apoptotic cells at 1 uM after 48 hrs by Annexin-V FITC/propidium iodide staining based flow cytometry (reference value: 2.6%); type: functional
MDA-MB-231 [16] = assay: Induction of apoptosis in human MDA-MB-231 cells assessed as late apoptotic cells at 1 uM after 48 hrs by Annexin-V FITC/propidium iodide staining based flow cytometry (reference value: 0.4%); type: functional
MDA-MB-231 [17] = assay: Induction of apoptosis in human MDA-MB-231 cells assessed as necrotic cells at 1 uM after 48 hrs by Annexin-V FITC/propidium iodide staining based flow cytometry (reference value: 0.8%); type: functional
MDA-MB-231 [18] = assay: Induction of apoptosis in human MDA-MB-231 cells assessed as live cells at 2 uM after 48 hrs by Annexin-V FITC/propidium iodide staining based flow cytometry (reference value: 96.1%); type: functional
MDA-MB-231 [19] = assay: Induction of apoptosis in human MDA-MB-231 cells assessed as early apoptotic cells at 2 uM after 48 hrs by Annexin-V FITC/propidium iodide staining based flow cytometry (reference value: 2.6%); type: functional
MDA-MB-231 [20] = assay: Induction of apoptosis in human MDA-MB-231 cells assessed as late apoptotic cells at 2 uM after 48 hrs by Annexin-V FITC/propidium iodide staining based flow cytometry (reference value: 0.4%); type: functional
MDA-MB-231 [21] = assay: Induction of apoptosis in human MDA-MB-231 cells assessed as necrotic cells at 2 uM after 48 hrs by Annexin-V FITC/propidium iodide staining based flow cytometry (reference value: 0.8%); type: functional
MDA-MB-231 [22] = assay: Induction of apoptosis in human MDA-MB-231 cells assessed as live cells at 5 uM after 48 hrs by Annexin-V FITC/propidium iodide staining based flow cytometry (reference value: 96.1%); type: functional
MDA-MB-231 [23] = assay: Induction of apoptosis in human MDA-MB-231 cells assessed as early apoptotic cells at 5 uM after 48 hrs by Annexin-V FITC/propidium iodide staining based flow cytometry (reference value: 2.6%); type: functional
MDA-MB-231 [24] = assay: Induction of apoptosis in human MDA-MB-231 cells assessed as late apoptotic cells at 5 uM after 48 hrs by Annexin-V FITC/propidium iodide staining based flow cytometry (reference value: 0.4%); type: functional
MDA-MB-231 [25] = assay: Induction of apoptosis in human MDA-MB-231 cells assessed as necrotic cells at 5 uM after 48 hrs by Annexin-V FITC/propidium iodide staining based flow cytometry (reference value: 0.8%); type: functional
MDA-MB-231 [26] = assay: Induction of apoptosis in human MDA-MB-231 cells assessed as live cells at 8 uM after 48 hrs by Annexin-V FITC/propidium iodide staining based flow cytometry (reference value: 96.1%); type: functional
MDA-MB-231 [27] = assay: Induction of apoptosis in human MDA-MB-231 cells assessed as early apoptotic cells at 8 uM after 48 hrs by Annexin-V FITC/propidium iodide staining based flow cytometry (reference value: 2.6%); type: functional
MDA-MB-231 [28] = assay: Induction of apoptosis in human MDA-MB-231 cells assessed as late apoptotic cells at 8 uM after 48 hrs by Annexin-V FITC/propidium iodide staining based flow cytometry (reference value: 0.4%); type: functional
MDA-MB-231 [29] = assay: Induction of apoptosis in human MDA-MB-231 cells assessed as necrotic cells at 8 uM after 48 hrs by Annexin-V FITC/propidium iodide staining based flow cytometry (reference value: 0.8%); type: functional
MDA-MB-231 [30] = assay: Induction of apoptosis in human MDA-MB-231 cells assessed as live cells at 10 uM after 48 hrs by Annexin-V FITC/propidium iodide staining based flow cytometry (reference value: 96.1%); type: functional
MDA-MB-231 [31] = assay: Induction of apoptosis in human MDA-MB-231 cells assessed as early apoptotic cells at 10 uM after 48 hrs by Annexin-V FITC/propidium iodide staining based flow cytometry (reference value: 2.6%); type: functional
MDA-MB-231 [32] = assay: Induction of apoptosis in human MDA-MB-231 cells assessed as late apoptotic cells at 10 uM after 48 hrs by Annexin-V FITC/propidium iodide staining based flow cytometry (reference value: 0.4%); type: functional
MDA-MB-231 [33] = assay: Induction of apoptosis in human MDA-MB-231 cells assessed as necrotic cells at 10 uM after 48 hrs by Annexin-V FITC/propidium iodide staining based flow cytometry (reference value: 0.8%); type: functional
MDA-MB-231 [34] = assay: Induction of apoptosis in human MDA-MB-231 cells assessed as increase in cleaved caspase-9 expression after 48 hrs by Western blot method; type: functional, cell-based
MDA-MB-231 [35] = assay: Induction of apoptosis in human MDA-MB-231 cells assessed as increase in cleaved caspase-3 expression after 48 hrs by Western blot method; type: functional, cell-based
MDA-MB-231 [36] = assay: Induction of apoptosis in human MDA-MB-231 cells assessed as increase in cleaved caspase-8 expression after 48 hrs by Western blot method; type: functional, cell-based
MDA-MB-231 [37] = assay: Antiproliferative activity against human MDA-MB-231 cells assessed as inhibition of colony formation after 48 hrs by crystal violet staining based assay; type: functional, cell-based
4T1 = assay: Antitumor activity against mouse 4T1 cells implanted in Kunming mouse assessed as tumor growth inhibition at 10 to 20 mg/kg, po qd for 14 days; type: functional, organism-based
Mus musculus [38] = assay: In vivo inhibition of STAT3 phosphorylation at Tyr-705 residue in tumor of Kunming mouse implanted with mouse 4T1 cells at 10 to 20 mg/kg, po qd for 14 days; type: functional, organism-based
Mus musculus [39] = assay: Toxicity in Kunming mouse implanted with mouse 4T1 cells assessed as body weight loss at 10 to 20 mg/kg, po qd for 14 days measured during compound dosing; type: organism-based; settings: in vivo, 336 h
MDA-MB-231 [40] = assay: Potency index, ratio of caffeic acid IC50 to compound IC50 for human MDA-MB-231 cells; type: functional

Chain of Signal transducer and activator of transcription 3 (Homo sapiens) (P40763 whole entry): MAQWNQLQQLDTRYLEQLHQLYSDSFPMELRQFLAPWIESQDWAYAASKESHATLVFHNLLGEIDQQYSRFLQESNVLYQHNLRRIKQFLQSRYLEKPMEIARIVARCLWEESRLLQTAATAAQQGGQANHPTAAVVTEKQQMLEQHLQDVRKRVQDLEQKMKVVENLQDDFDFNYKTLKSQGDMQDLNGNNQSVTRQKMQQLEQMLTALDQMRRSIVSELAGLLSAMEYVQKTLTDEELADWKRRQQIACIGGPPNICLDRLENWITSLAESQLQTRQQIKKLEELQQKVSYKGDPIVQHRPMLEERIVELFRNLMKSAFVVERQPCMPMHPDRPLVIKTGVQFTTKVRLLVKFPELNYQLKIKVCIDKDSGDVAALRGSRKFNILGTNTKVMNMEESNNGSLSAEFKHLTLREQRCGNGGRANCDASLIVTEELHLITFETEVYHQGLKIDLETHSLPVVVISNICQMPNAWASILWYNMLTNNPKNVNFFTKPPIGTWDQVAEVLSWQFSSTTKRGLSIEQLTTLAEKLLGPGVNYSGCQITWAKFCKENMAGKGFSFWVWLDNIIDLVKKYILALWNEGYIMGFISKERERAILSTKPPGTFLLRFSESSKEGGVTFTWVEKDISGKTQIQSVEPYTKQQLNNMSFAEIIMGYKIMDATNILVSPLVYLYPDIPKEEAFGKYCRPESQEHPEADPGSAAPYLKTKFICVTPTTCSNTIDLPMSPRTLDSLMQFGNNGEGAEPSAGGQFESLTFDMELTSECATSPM

Structure (SMILES): COc1cc(/C=C/c2ccc(NC(=O)/C=C/c3cc(OC)c(OC)c(OC)c3)cc2)cc(OC)c1
- IC50 [1]: 1.82 µM
- IC50 [2]: 2.14 µM
- Ratio IC50 (MDA-MB-231 [3]): >50
- inhibition [4]: Dose-dependent effect
- Activity [5]: Non-Toxic
- inhibition [6]: Active
- inhibition [7]: Active
- inhibition [8]: Active
- inhibition [9]: Dose-dependent effect
- inhibition [10]: Active
- inhibition [11]: Active
- inhibition [12]: Active
- inhibition [13]: Active
- Activity (MDA-MB-231 [14]): 89.7%
- Activity (MDA-MB-231 [15]): 7.7%
- Activity (MDA-MB-231 [16]): 1.3%
- Activity (MDA-MB-231 [17]): 1.3%
- Activity (MDA-MB-231 [18]): 87.5%
- Activity (MDA-MB-231 [19]): 9.8%
- Activity (MDA-MB-231 [20]): 1.4%
- Activity (MDA-MB-231 [21]): 1.3%
- Activity (MDA-MB-231 [22]): 78%
- Activity (MDA-MB-231 [23]): 16.2%
- Activity (MDA-MB-231 [24]): 4.7%
- Activity (MDA-MB-231 [25]): 1.1%
- Activity (MDA-MB-231 [26]): 51.8%
- Activity (MDA-MB-231 [27]): 37.1%
- Activity (MDA-MB-231 [28]): 6.2%
- Activity (MDA-MB-231 [29]): 0.6%
- Activity (MDA-MB-231 [30]): 18.5%
- Activity (MDA-MB-231 [31]): 74.6%
- Activity (MDA-MB-231 [32]): 10.6%
- Activity (MDA-MB-231 [33]): 0.7%
- Activity (MDA-MB-231 [34]): Dose-dependent effect
- Activity (MDA-MB-231 [35]): Dose-dependent effect
- Activity (MDA-MB-231 [36]): Active
- inhibition (MDA-MB-231 [37]): Dose-dependent effect
- TGI (4T1): Active
- inhibition (Mus musculus [38]): Active
- Activity (Mus musculus [39]): Non-Toxic
- Ratio IC50 (MDA-MB-231 [40]): >50

Structure (SMILES): COc1cc(/C=C/c2ccc(OC(=O)/C=C/c3cc(OC)c(OC)c(OC)c3)cc2)cc(OC)c1
- IC50 [1]: 2.91 µM
- IC50 [2]: 3.08 µM

Structure (SMILES): COc1cc(/C=C/c2ccc(OC(=O)/C=C/c3ccc(F)cc3)cc2)cc(OC)c1
- IC50 [1]: 7.77 µM
- IC50 [2]: 6.21 µM

Structure (SMILES): COc1cc(/C=C/c2ccc(NC(=O)/C=C/c3ccc(O)c(O)c3)cc2)cc(OC)c1
- IC50 [1]: 1.56 µM
- IC50 [2]: 4.23 µM

Structure (SMILES): Oc1ccc(/C=C/c2cc(O)cc(O)c2)cc1 [RESVERATROL]
- IC50 [1]: > 100 µM
- IC50 [2]: > 100 µM

Structure (SMILES): COc1cc(/C=C/c2ccc(OC(=O)/C=C/c3ccccc3)cc2)cc(OC)c1
- IC50 [1]: 9.05 µM
- IC50 [2]: 9.81 µM

Structure (SMILES): O=C(O)/C=C/c1ccc(O)c(O)c1 [CAFFEIC ACID]
- IC50 [1]: > 100 µM
- IC50 [2]: > 100 µM

Structure (SMILES): COc1cc(/C=C/c2ccc(NC(=O)/C=C/c3ccc(F)cc3)cc2)cc(OC)c1
- IC50 [1]: 11.6 µM
- IC50 [2]: 9.39 µM

Structure (SMILES): COc1cc(/C=C/c2ccc(OC(=O)/C=C/c3ccc(C(F)(F)F)cc3)cc2)cc(OC)c1
- IC50 [1]: 9.09 µM
- IC50 [2]: 6.91 µM

Structure (SMILES): COc1cc(/C=C/c2ccc(NC(=O)/C=C/c3ccc(F)cc3F)cc2)cc(OC)c1
- IC50 [1]: 18.1 µM
- IC50 [2]: > 20 µM

Structure (SMILES): COc1cc(/C=C/c2ccc(NC(=O)/C=C/c3ccc(C#N)cc3)cc2)cc(OC)c1
- IC50 [1]: 3.32 µM
- IC50 [2]: 7.74 µM

Structure (SMILES): COc1cc(/C=C/c2ccc(NC(=O)/C=C/c3ccccc3)cc2)cc(OC)c1
- IC50 [1]: 1.75 µM
- IC50 [2]: 2.01 µM
